According to paper PMC10893631, “Receptor-based pharmacophore modeling, molecular docking, synthesis and biological evaluation of novel VEGFR-2, FGFR-1, and BRAF multi-kinase inhibitors” (BMC Chemistry, 2024):

Tests used:
Test in all cases: NCI SRB growth inhibition (single dose 10 µM / five-dose)
Format in all cases: cell-based, human
SF-539 = settings: Homo sapiens; for inhibition at 10 µM: SF-539 (CNS cancer), read-out: GI%
Procedure, shortened: (§1)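 SRB read-out. Plating density 5000–40,000 cells/well; Tz fixed at 24 h; 5 conc. (10-fold or ½ log) + control; TCA fix, 0.4% SRB/1% AcOH 10 min RT; % growth = (Ti−Tz)/(C−Tz)×100, or (Ti−Tz)/Tz×100 when Ti<Tz.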

NCI-H460 = settings: Homo sapiens; for inhibition at 10 µM: NCI-H460 (Non-small cell lung cancer), read-out: GI%
Procedure, shortened: as §1

SK-OV-3 = settings: Homo sapiens
Procedure, shortened: as §1

PC-3 = settings: Homo sapiens; for inhibition at 10 µM: PC-3 (Prostate cancer), read-out: GI%
Procedure, shortened: as §1

RXF 393 = settings: Homo sapiens; for inhibition at 10 µM: RXF 393 (Renal cancer), read-out: GI%
Procedure, shortened: as §1

OVCAR-3 = settings: Homo sapiens; for inhibition at 10 µM: OVCAR-3 (Ovarian cancer), read-out: GI%
Procedure, shortened: as §1

SK-MEL-28 = settings: Homo sapiens; for inhibition at 10 µM: SK-MEL-28 (Melanoma), read-out: GI%
Procedure, shortened: as §1

HCT-15 = settings: Homo sapiens; for inhibition at 10 µM: HCT-15 (Colon cancer), read-out: GI%
Procedure, shortened: as §1

OVCAR-5 = settings: Homo sapiens; for inhibition at 10 µM: OVCAR-5 (Ovarian cancer), read-out: GI%
Procedure, shortened: as §1

HCC-2998 = settings: Homo sapiens; for inhibition at 10 µM: HCC-2998 (Colon cancer), read-out: GI%
Procedure, shortened: as §1

MOLT-4 = settings: Homo sapiens; for inhibition at 10 µM: MOLT-4 (Leukemia), read-out: GI%
Procedure, shortened: as §1

SW-620 = settings: Homo sapiens; for inhibition at 10 µM: SW-620 (Colon cancer), read-out: GI%
Procedure, shortened: as §1

HS 578 T = settings: Homo sapiens; for inhibition at 10 µM: HS 578 T (Breast cancer), read-out: GI%
Procedure, shortened: as §1

T-47D = settings: Homo sapiens, T47D
Procedure, shortened: as §1

HOP-92 = settings: Homo sapiens; for inhibition at 10 µM: HOP-92 (Non-small cell lung cancer), read-out: GI%
Procedure, shortened: as §1

MALME-3 M = settings: Homo sapiens; for inhibition at 10 µM: MALME-3 M (Melanoma), read-out: GI%
Procedure, shortened: as §1

NCI-H322M = settings: Homo sapiens; for inhibition at 10 µM: NCI-H322M (Non-small cell lung cancer), read-out: GI%
Procedure, shortened: as §1

OVCAR-8 = settings: Homo sapiens; for inhibition at 10 µM: OVCAR-8 (Ovarian cancer), read-out: GI%
Procedure, shortened: as §1

MCF7 = settings: Homo sapiens; for inhibition at 10 µM: MCF7 (Breast cancer), read-out: GI%
Procedure, shortened: as §1

A549/ATCC = settings: Homo sapiens; for inhibition at 10 µM: A549/ATCC (Non-small cell lung cancer), read-out: GI%
Procedure, shortened: as §1

CCRF-CEM = settings: Homo sapiens; for inhibition at 10 µM: CCRF-CEM (Leukemia), read-out: GI%
Procedure, shortened: as §1

UO-31 = settings: Homo sapiens; for inhibition at 10 µM: UO-31 (Renal cancer), read-out: GI%
Procedure, shortened: as §1

MDA-MB-435 = settings: Homo sapiens; for inhibition at 10 µM: MDA-MB-435 (Melanoma), read-out: GI%
Procedure, shortened: as §1

U251 = settings: Homo sapiens, U-251; for inhibition at 10 µM: U251 (CNS cancer), read-out: GI%
Procedure, shortened: as §1

HCT-116 = settings: Homo sapiens, HCT-116; for inhibition at 10 µM: read-out: GI%
Procedure, shortened: as §1

A498 = settings: Homo sapiens; for inhibition at 10 µM: A498 (Renal cancer), read-out: GI%
Procedure, shortened: as §1

## COc1cccc(C=NNC(=O)c2ccc3[nH]c(-c4ccccc4)nc3c2)c1O [8d, N'-(2-hydroxy-3-methoxybenzylidene)-2-phenyl-1H-benzo[d]imidazole-5-carbohydrazide]
SF-539
  inhibition at 10 µM: > 100%
SF-539; SF-539, CNS cancer, five-dose
  GI50: 1310 nM
NCI-H460
  inhibition at 10 µM: 86.4%
NCI-H460; NCI-H460, Non-small cell lung cancer, five-dose
  GI50: 2630 nM
SK-OV-3; SK-OV-3, Ovarian cancer, five-dose
  GI50: 2560 nM
PC-3
  inhibition at 10 µM: 82.2%
PC-3; PC-3, Prostate cancer, five-dose
  GI50: 2710 nM
RXF 393
  inhibition at 10 µM: 86%
RXF 393; RXF 393, Renal cancer, five-dose
  GI50: 3210 nM
OVCAR-3
  inhibition at 10 µM: > 100%
OVCAR-3; OVCAR-3, Ovarian cancer, five-dose
  GI50: 420 nM
SK-MEL-28
  inhibition at 10 µM: 96.2%
SK-MEL-28; SK-MEL-28, Melanoma, five-dose
  GI50: 1780 nM
HCT-15
  inhibition at 10 µM: 71.6%
HCT-15; HCT-15, Colon cancer, five-dose
  GI50: 2070 nM
OVCAR-5
  inhibition at 10 µM: 63.2%
OVCAR-5; OVCAR-5, Ovarian cancer, five-dose
  GI50: 2770 nM
HCC-2998
  inhibition at 10 µM: 98.5%
HCC-2998; HCC-2998, Colon cancer, five-dose
  GI50: 1790 nM
MOLT-4
  inhibition at 10 µM: 65.8%
MOLT-4; MOLT-4, Leukemia, five-dose
  GI50: 2060 nM
SW-620
  inhibition at 10 µM: 70.8%
SW-620; SW-620, Colon cancer, five-dose
  GI50: 3770 nM
HS 578 T
  inhibition at 10 µM: 92.9%
HS 578 T; HS 578 T, Breast cancer, five-dose
  GI50: 620 nM
T-47D; T-47D, Breast cancer, five-dose
  GI50: 1930 nM
HOP-92
  inhibition at 10 µM: 68.4%
HOP-92; HOP-92, Non-small cell lung cancer, five-dose
  GI50: 1580 nM
MALME-3 M
  inhibition at 10 µM: > 100%
MALME-3 M; MALME-3 M, Melanoma, five-dose
  GI50: 1370 nM
NCI-H322M
  inhibition at 10 µM: 88%
NCI-H322M; NCI-H322M, Non-small cell lung cancer, five-dose
  GI50: 1410 nM
OVCAR-8
  inhibition at 10 µM: > 100%
OVCAR-8; OVCAR-8, Ovarian cancer, five-dose
  GI50: 1620 nM
MCF7
  inhibition at 10 µM: 98.1%
MCF7; MCF7, Breast cancer, five-dose
  GI50: 1060 nM
A549/ATCC
  inhibition at 10 µM: 79.8%
A549/ATCC; A549/ATCC, Non-small cell lung cancer, five-dose
  GI50: 3390 nM
CCRF-CEM
  inhibition at 10 µM: > 100%
CCRF-CEM; CCRF-CEM, Leukemia, five-dose
  GI50: 300 nM
UO-31
  inhibition at 10 µM: 98.5%
UO-31; UO-31, Renal cancer, five-dose
  GI50: 2340 nM
MDA-MB-435
  inhibition at 10 µM: 74.6%
MDA-MB-435; MDA-MB-435, Melanoma, five-dose
  GI50: 4690 nM
U251
  inhibition at 10 µM: 99.9%
U251; U251, CNS cancer, five-dose
  GI50: 760 nM
HCT-116
  GI50: 1840 nM
  inhibition at 10 µM: 97.4%
A498
  inhibition at 10 µM: < 5%
A498; A498, Renal cancer, five-dose
  GI50: 36600 nM

## COc1ccc(C=NNC(=O)c2ccc3[nH]c(-c4ccccc4)nc3c2)cc1O [8e, N'-(3-Hydroxy-4-methoxybenzylidene)-2-phenyl-1H-benzo[d]imidazole-5-carbohydrazide]
SF-539
  inhibition at 10 µM: 32.2%
NCI-H460
  inhibition at 10 µM: < 5%
SK-OV-3; SK-OV-3 (Ovarian cancer), 10 µM, read-out: GI%
  inhibition at 10 µM: 56.3%
PC-3
  inhibition at 10 µM: 11.5%
RXF 393
  inhibition at 10 µM: < 5%
OVCAR-3
  inhibition at 10 µM: 7.25%
SK-MEL-28
  inhibition at 10 µM: 28.9%
HCT-15
  inhibition at 10 µM: < 5%
OVCAR-5
  inhibition at 10 µM: < 5%
HCC-2998
  inhibition at 10 µM: < 5%
MOLT-4
  inhibition at 10 µM: 36.1%
SW-620
  inhibition at 10 µM: < 5%
HS 578 T
  inhibition at 10 µM: 6.89%
T-47D; T-47D (Breast cancer), 10 µM, read-out: GI%
  inhibition at 10 µM: 39.3%
HOP-92
  inhibition at 10 µM: 6.3%
MALME-3 M
  inhibition at 10 µM: 78.4%
NCI-H322M
  inhibition at 10 µM: < 5%
OVCAR-8
  inhibition at 10 µM: 25.2%
MCF7
  inhibition at 10 µM: 70.5%
A549/ATCC
  inhibition at 10 µM: < 5%
CCRF-CEM
  inhibition at 10 µM: 35.9%
UO-31
  inhibition at 10 µM: 38.2%
MDA-MB-435
  inhibition at 10 µM: 30.4%
U251
  inhibition at 10 µM: 14.6%
HCT-116
  inhibition at 10 µM: 15%
A498
  inhibition at 10 µM: < 5%
